Reference: PMC11820618 (Molecules, 2025)
Read-outs that look alike come from different tables or passages of the source.

What was measured:
[1] = target: T1, human TRPV1 (Homo sapiens, UniProt Q8NER1); experiment: cell-based; details: for Emax: HEK293, read-out: TRPV1 Eff. %;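 for Emax: percent of maximal Ca2+ influx with 4 µM ionomycin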;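 for TRPV1 Eff. %: percent of maximal Ca2+ influx with 4 µM ionomycin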
T1 construct: expressed in transfected cells

[2] = target: T2, rat TRPA1 (Rattus norvegicus, UniProt Q6RI86); experiment: cell-based; details: for Emax: HEK293, read-out: TRPA1 Eff. %;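 for Emax: percent of maximal Ca2+ influx with 100 µM AITC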;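 for TRPA1 Eff. %: percent of maximal Ca2+ influx with 100 µM AITC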
T2 construct: expressed in transfected cells
T2 sequence (Q6RI86 whole entry): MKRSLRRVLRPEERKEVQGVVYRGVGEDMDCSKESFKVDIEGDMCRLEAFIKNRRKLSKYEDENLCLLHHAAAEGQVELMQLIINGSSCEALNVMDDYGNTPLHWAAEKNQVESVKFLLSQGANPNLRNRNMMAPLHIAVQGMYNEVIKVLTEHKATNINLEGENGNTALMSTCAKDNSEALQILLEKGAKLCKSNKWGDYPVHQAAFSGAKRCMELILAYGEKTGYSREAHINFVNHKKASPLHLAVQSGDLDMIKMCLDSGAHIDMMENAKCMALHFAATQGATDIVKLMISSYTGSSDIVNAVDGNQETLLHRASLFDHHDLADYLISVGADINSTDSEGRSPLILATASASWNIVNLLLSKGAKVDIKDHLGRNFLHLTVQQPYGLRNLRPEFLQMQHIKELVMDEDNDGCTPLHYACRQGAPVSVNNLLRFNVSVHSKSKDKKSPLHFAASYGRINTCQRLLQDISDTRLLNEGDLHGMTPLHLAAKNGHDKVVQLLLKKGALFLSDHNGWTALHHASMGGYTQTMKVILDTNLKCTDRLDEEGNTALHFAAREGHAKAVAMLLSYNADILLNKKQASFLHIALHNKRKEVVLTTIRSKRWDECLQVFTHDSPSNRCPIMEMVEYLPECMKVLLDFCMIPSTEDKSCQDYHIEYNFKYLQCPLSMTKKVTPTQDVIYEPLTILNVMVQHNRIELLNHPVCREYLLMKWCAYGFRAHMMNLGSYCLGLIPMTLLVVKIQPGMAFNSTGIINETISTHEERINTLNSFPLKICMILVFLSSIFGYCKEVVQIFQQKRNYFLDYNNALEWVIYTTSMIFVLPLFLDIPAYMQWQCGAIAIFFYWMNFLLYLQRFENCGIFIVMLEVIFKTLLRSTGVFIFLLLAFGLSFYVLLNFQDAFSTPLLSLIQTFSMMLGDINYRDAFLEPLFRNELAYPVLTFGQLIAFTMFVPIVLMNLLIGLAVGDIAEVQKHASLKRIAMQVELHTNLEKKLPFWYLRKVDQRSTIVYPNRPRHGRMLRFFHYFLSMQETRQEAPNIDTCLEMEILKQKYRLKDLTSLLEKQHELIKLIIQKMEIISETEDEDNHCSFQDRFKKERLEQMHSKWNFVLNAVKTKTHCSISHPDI

[3] = tested on: TRPV1; details: cited from earlier work; for EC50: read-out: TRPV1 EC50 (potency); for IC50: read-out: TRPV1 IC50 (desensitization)

T1 sequence (Q8NER1 whole entry): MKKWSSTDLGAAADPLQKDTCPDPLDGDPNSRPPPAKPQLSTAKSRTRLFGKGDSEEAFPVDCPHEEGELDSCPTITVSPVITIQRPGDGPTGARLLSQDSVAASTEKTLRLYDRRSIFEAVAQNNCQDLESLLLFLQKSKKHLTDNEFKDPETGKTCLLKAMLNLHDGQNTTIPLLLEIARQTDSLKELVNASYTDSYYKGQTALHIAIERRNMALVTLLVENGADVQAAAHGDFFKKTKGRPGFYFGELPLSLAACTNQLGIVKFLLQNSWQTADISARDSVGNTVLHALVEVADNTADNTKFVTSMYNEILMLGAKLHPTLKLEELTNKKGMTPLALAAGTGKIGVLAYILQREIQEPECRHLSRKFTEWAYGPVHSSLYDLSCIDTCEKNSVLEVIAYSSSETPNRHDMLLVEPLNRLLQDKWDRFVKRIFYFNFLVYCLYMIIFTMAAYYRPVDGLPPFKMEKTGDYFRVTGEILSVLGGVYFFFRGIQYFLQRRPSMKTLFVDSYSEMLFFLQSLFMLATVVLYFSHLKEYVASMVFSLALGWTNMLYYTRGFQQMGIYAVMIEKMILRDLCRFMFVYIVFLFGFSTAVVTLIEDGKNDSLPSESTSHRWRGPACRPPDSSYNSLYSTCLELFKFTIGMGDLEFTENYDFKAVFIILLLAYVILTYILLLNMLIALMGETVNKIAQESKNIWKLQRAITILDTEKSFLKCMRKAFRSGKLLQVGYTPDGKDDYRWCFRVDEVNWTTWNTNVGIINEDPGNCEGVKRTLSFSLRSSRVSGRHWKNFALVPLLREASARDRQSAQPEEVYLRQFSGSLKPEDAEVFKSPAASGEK

Structure (SMILES) | IC50 [1] | Emax [1] | EC50 [2] | IC50 [2] | Emax [2] | EC50 [1] | also measured
COc1ccc(CNC(=O)c2cc3ccccc3n2C)cc1 [6e, N-(4-methoxybenzyl)-1-methyl-1H-indole-2-carboxamide] | > 10 µM | < 10% | 20.3 ± 1.1 µM | > 50 µM | 81.3 ± 1.8% |  | 
O=C(NCc1ccc(F)cc1)c1cc2ccccc2[nH]1 [5e, N-(4-Fluorobenzyl)-1H-indole-2-carboxamide] | > 100 µM | < 10% | 23.7 ± 2.1 µM | > 50 µM | 42.8 ± 1.8% |  | 
Cn1c(C(=O)NCc2ccc(F)cc2)cc2ccccc21 [6f, N-(4-fluorobenzyl)-1-methyl-1H-indole-2-carboxamide] | > 100 µM | < 10% | 20.4 ± 6.9 µM | 33.5 ± 3.2 µM |  |  | 
COc1cc(CNC(=O)CCCCC2CCSS2)ccc1O (stereo not drawn) [compound 3] |  |  |  |  |  |  | EC50 [3]: 0.13 µM; IC50 [3]: 0.13 µM
COc1ccc(CNC(=O)c2cc3ccccc3[nH]2)cc1 [5d, N-(4-Methoxybenzyl)-1H-indole-2-carboxamide] | > 50 µM | < 10% | > 50 µM | > 100 µM | 39.1 ± 3.5% |  | 
Cn1c(C(=O)NCc2ccc(F)c(F)c2)cc2ccccc21 [6i, N-(3,4-Difluorobenzyl)-1-methyl-1H-indole-2-carboxamide] | > 100 µM | < 10% | 10.9 ± 0.9 µM | 32.2 ± 3.2 µM | 68.4 to 101% |  | 
O=C(NCc1ccccc1)c1cc2ccccc2[nH]1 [5b, N-Benzyl-1H-indole-2-carboxamide] | > 100 µM | < 10% |  | > 100 µM | < 10% |  | 
Cn1c(C(=O)NCc2ccc(O)cc2)cc2ccccc21 [6d, N-(4-hydroxybenzyl)-1-methyl-1H-indole-2-carboxamide] | 19.2 ± 6.7 µM | 27.6% |  | > 100 µM | < 10% | 1.1 ± 0.1 µM | TRPV1 Eff. % [1]: 27.6 ± 0.3%
COc1cc(CNC(=O)c2cc3ccccc3[nH]2)ccc1O [5f, N-(4-Hydroxy-3-methoxybenzyl)-1H-indole-2-carboxamide] | 1.03 ± 0.09 µM | 66.8% |  |  |  | 0.56 ± 0.08 µM | TRPV1 Eff. % [1]: 66.8 ± 1.3%
O=C(NCc1ccc(O)cc1)c1cc2ccccc2[nH]1 [5c, N-(4-Hydroxybenzyl)-1H-indole-2-carboxamide] | > 50 µM | 47.2 ± 0.3% |  | > 100 µM | < 10% | > 10 µM | 
COc1cc(CNC(=O)CCCc2ccc(-c3cccnc3)s2)ccc1O [4b] |  |  |  |  |  |  | EC50 [3]: 0.0764 µM; IC50 [3]: 0.145 µM
O=C(NCc1ccc(F)c(F)c1)c1cc2ccccc2[nH]1 [5h, N-(3,4-Difluorobenzyl)-1H-indole-2-carboxamide] | > 100 µM | < 10% | 19.1 ± 3.1 µM | > 50 µM | 68.4 to 101% |  | 
Cn1c(C(=O)NCc2ccccc2)cc2ccccc21 [6c, N-Benzyl-1-methyl-1H-indole-2-carboxamide] | > 50 µM | < 10% |  | > 50 µM | < 10% |  | 
O=C(NCCc1ccc(O)c(O)c1)c1cc2ccccc2[nH]1 [5i, N-(3,4-Dihydroxyphenethyl)-1H-indole-2-carboxamide] | 2.1 ± 0.1 µM | 37.3 ± 0.1% |  |  |  | 8.1 ± 0.1 µM | TRPV1 agonist behaviour (in words) [1]: very weak agonist
COc1cc(CNC(=O)c2cc3ccccc3n2C)ccc1O [6g, N-(4-hydroxy-3-methoxybenzyl)-1-methyl-1H-indole-2-carboxamide] |  | > 60% | > 50 µM | > 100 µM | 59.8 ± 1.6% | 0.0365 µM | IC50 ([1]; read-out: TRPV1 IC50 (antagonism/desensitization)): 0.0535 ± 0.048 µM
COc1cc(CNC(=O)CCCc2ccc(-c3ccccc3)s2)ccc1O [4c] |  |  |  |  |  |  | EC50 [3]: 0.0016 µM; IC50 [3]: 0.0017 µM
Cn1c(C(=O)Nc2ccc(F)cc2)cc2ccccc21 [6b, N-(4-Fluorophenyl)-1-methyl-1H-indole-2-carboxamide] | 6.9 ± 2.6 µM | 34.4% | 2 ± 1.1 µM | 5.2 ± 0.4 µM | 78.6% | 3.5 ± 2.1 µM | TRPV1 Eff. % [1]: 34.4 ± 4.5%; TRPA1 Eff. % [2]: 78.6 ± 9.7%; TRPA1 agonist behaviour (in words) [2]: very good TRPA1 agonist
Cn1c(C(=O)NCCc2ccc(O)c(O)c2)cc2ccccc21 [6j, N-(3,4-Dihydroxyphenethyl)-1-methyl-1H-indole-2-carboxamide] | 0.26 ± 0.02 µM | > 60% |  |  |  | 0.18 ± 0.05 µM | 
O=C(NCc1ccc(Cl)c(Cl)c1)c1cc2ccccc2[nH]1 [5g, N-(3,4-Dichlorobenzyl)-1H-indole-2-carboxamide] | > 100 µM | < 10% |  |  |  |  | 
COc1cc(CNC(=O)CCCc2ccccc2)ccc1O [4d] |  |  |  |  |  |  | EC50 [3]: 0.109 µM; IC50 [3]: 0.273 µM
Cn1c(C(=O)Nc2ccc(O)cc2)cc2ccccc21 [6a, N-(4-Hydroxyphenyl)-1-methyl-1H-indole-2-carboxamide] | 0.72 ± 0.08 µM | > 60% | 22.7 ± 1.7 µM | > 50 µM | 42.9 ± 0.5% | 0.34 ± 0.01 µM | 
COc1cc(CNC(=O)CCCc2ccc(I)s2)ccc1O [4a] |  |  |  |  |  |  | EC50 [3]: 0.0074 µM; IC50 [3]: 0.0051 µM
O=C(Nc1ccc(O)cc1)c1cc2ccccc2[nH]1 [5a, N-(4-Hydroxyphenyl)-1H-indole-2-carboxamide] | 10 ± 3.9 µM | 54% |  | > 100 µM | < 10% | 2.3 ± 0.1 µM | 
COc1cc(CNC(=O)CCCc2cccs2)ccc1O [compound 2, N-(4-Hydroxy-3-Methoxybenzyl)-4-(Thiophen-2-yl)Butanamide] |  |  |  |  |  |  | EC50 [3]: 0.87 µM; IC50 [3]: 1.3 µM
Cn1c(C(=O)NCc2ccc(Cl)c(Cl)c2)cc2ccccc21 [6h, N-(3,4-Dichlorobenzyl)-1-methyl-1H-indole-2-carboxamide] | 16.4 ± 0.5 µM | < 10% |  |  |  |  | 
